Laboratory results taken from patent US20250230193A1, “CYCLIC COMPOUND HAVING SELECTIVE KRAS INHIBITORY EFFECT ON HRAS AND NRAS” (CHUGAI SEIYAKU KABUSHIKI KAISHA, priority 2022, published 2025).
*1 amine or outer side, *2 acyl side, *3 side chain or, on linkers, in order; H or OH if unused. Where a SMILES comes first, the peptide text is derived from it. Bridges are numbered along the chain shown (N, C = ends). [ ]: non-standard residue; d: D form. The star is where a group is joined. hPhe(3-Cl-4-CF3) = N[C@@H](CCc1ccc(C(F)(F)F)c(Cl)c1)C(=O)O; X43 = Cc1ccc(C[C@@H](C(=O)[*:2])N(CC2CCC2)[*:1])cc1; X48 = C=CCCN([C@@H](Cc1ccc(C)cc1)C(=O)[*:2])[*:1]; NPrPhe(4-Me) = CCCN[C@@H](Cc1ccc(C)cc1)C(=O)O; NMeGly(cPent) = CN[C@H](C(=O)O)C1CCCC1; NMeD = CN[C@@H](CC(=O)O)C(=O)O; NMeL = CN[C@@H](CC(C)C)C(=O)O; Morpholide = C1CN(*)CCO1; Ac5c = NC1(C(=O)O)CCCC1; NEtG = CCNCC(=O)O; Sar = CNCC(=O)O

Columns and labels:
[1] = molecular target: GDP-bound NRAS wild-type protein (Homo sapiens, UniProt P01111); assay: Binding to NRAS by surface plasmon resonance (SPR), Single Cycle Kinetics; conditions: SPR
[2] = molecular target: GDP-bound HRAS wild-type protein (Homo sapiens, UniProt P01112); assay: Binding to HRAS by surface plasmon resonance (SPR), Single Cycle Kinetics; conditions: SPR
[3] = GDP-bound NRAS wild-type vs GDP-bound KRAS wild-type
[4] = GDP-bound HRAS wild-type vs GDP-bound KRAS wild-type
[5] = KD ratio, GDP-bound NRAS wild-type vs GDP-bound KRAS wild-type
[6] = KD ratio, GDP-bound HRAS wild-type vs GDP-bound KRAS wild-type

GDP-bound HRAS wild-type protein, sequence (P01112 whole entry): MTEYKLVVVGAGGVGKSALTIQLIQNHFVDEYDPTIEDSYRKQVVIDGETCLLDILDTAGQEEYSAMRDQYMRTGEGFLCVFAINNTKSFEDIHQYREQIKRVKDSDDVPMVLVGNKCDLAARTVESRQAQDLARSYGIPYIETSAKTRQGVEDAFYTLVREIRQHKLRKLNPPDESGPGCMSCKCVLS
GDP-bound NRAS wild-type protein, sequence (P01111 whole entry): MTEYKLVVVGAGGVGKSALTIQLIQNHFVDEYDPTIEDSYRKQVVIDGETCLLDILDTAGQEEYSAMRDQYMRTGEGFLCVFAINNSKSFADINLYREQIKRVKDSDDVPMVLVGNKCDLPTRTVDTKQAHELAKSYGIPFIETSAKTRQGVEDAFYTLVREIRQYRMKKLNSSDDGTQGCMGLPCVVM

Row | SMILES | NRAS/KRAS (ratio of KD for GDP-bound NRAS wild-type to KD for KRAS) ([1]; KD ratio NRAS/KRAS) | HRAS/KRAS (ratio of KD for GDP-bound HRAS wild-type to KD for KRAS) ([2]; KD ratio HRAS/KRAS) | NRAS/KRAS (ratio of KD value with respect to NRAS to KD value with respect to KRAS) [1, 5] | HRAS/KRAS (ratio of KD value with respect to HRAS to KD value with respect to KRAS) [2, 6] | other results
1 | CCC[C@H]1C(=O)N[C@@H]([C@@H](C)CC)C(=O)N(C2CC2)CC(=O)N(C)[C@H]2C/C=C\CCN(C2=O)[C@@H](Cc2ccc(C)cc2)C(=O)N(C)CC(=O)N[C@@H](CCc2cc(F)c(C(F)(F)F)c(F)c2)C(=O)N2C[C@H](OCC)C[C@H]2C(=O)NC2(CC(C)(C)C2)C(=O)N(C)[C@@H](C2CCCC2)C(=O)N(C)[C@H](C(=O)N(C)C)CC(=O)N1C [PP2093, (2S,8S,12R,14S,20S,23S,27S,30S,36S,38Z)-20-cyclopentyl-32-cyclopropyl-8-[2-[3,5-difluoro-4-(trifluoromethyl)phenyl]ethyl]-12-ethoxy-N,N,3′,3′,4,19,22,26,35-nonamethyl-30-[(1S)-1-methylpropyl]-3,6,9,15,18,21,25,28,31,34,42-undecaoxo-27-propyl-2-(p-tolylmethyl)spiro[1,4,7,10,16,19,22,26,29,32,35-undecazatricyclo[34.5.1.0^10,14]dotetracont-38-ene-17,1′-cyclobutane]-23-carboxamide] | – | – | – | – | NRAS/KRAS (ratio of KD value with respect to NRAS to KD value with respect to KRAS) [1, 3]: A (a compound having 10 or more and less than 20 is denoted as A); HRAS/KRAS (ratio of KD value with respect to HRAS to KD value with respect to KRAS) [2, 4]: A (a compound having 10 or more and less than 20 is denoted as A)
2 | CCCN1C(=O)CN(CC)C(=O)CN(C)C(=O)[C@H]([C@@H](C)CC)NC(=O)[C@H](CC(C)C)N(C)C(=O)C[C@@H](C(=O)N2CCOCC2)N(C)C(=O)[C@H](C2CCCC2)N(C)C(=O)C2(CCCC2)NC(=O)[C@@H]2CCCN2C(=O)[C@H](CCc2ccc(C(F)(F)F)c(Cl)c2)NC(=O)CN(CC)C(=O)[C@@H]1Cc1ccc(C)cc1 [PP0069] ([NMeL]I[Sar][NEtG][NPrPhe(4-Me)][NEtG][hPhe(3-Cl-4-CF3)]P[Ac5c][NMeGly(cPent)][NMeD]-Morpholide; lactam N-11) | C (A compound having a KD ratio of 0.1 or more and less than 3 is denoted as C) | C (A compound having a KD ratio of 0.1 or more and less than 3 is denoted as C) | – | – | –
3 | CC[C@H](C)[C@@H]1NC(=O)[C@H](CC(C)C)N(C)C(=O)C[C@@H](C(=O)N2CCOCC2)N(C)C(=O)[C@H](C2CCCC2)N(C)C(=O)C2(CCC2)NC(=O)[C@@H]2C[C@@H](O)CN2C(=O)[C@H](CCc2cc(F)c(C(F)(F)F)c(F)c2)NC(=O)CN(C)C(=O)[C@H](Cc2ccc(C(F)(F)F)cc2)N2CCCCC[C@@H](C2=O)N(C)C(=O)CN(C)C1=O [PP0871] | – | – | B (a compound having 3 or more and less than 10 is denoted as B) | B (a compound having 3 or more and less than 10 is denoted as B) | –
4 | CCO[C@@H]1C[C@H]2C(=O)NC3(CC(F)(F)C3)C(=O)N(C)[C@@H](C3CCCC3)C(=O)N(C)[C@H](C(=O)N3CCOCC3)CC(=O)N(C)[C@@H](COC)C(=O)N[C@@H]([C@@H](C)CC)C(=O)N(C)CC(=O)N(C)[C@H]3CCCCCN(C3=O)[C@@H](Cc3ccc(C(F)(F)F)cc3)C(=O)N(C)CC(=O)N[C@@H](CCc3cc(F)c(C(F)(F)F)c(F)c3)C(=O)N2C1 [PP0843] | – | – | B (a compound having 3 or more and less than 10 is denoted as B) | B (a compound having 3 or more and less than 10 is denoted as B) | –
5 | CC[C@H](C)[C@@H]1NC(=O)[C@H](CC(C)C)N(C)C(=O)C[C@@H](C(=O)N2CCOCC2)N(C)C(=O)[C@H](C2CCCC2)N(C)C(=O)C2(CCCC2)NC(=O)[C@@H]2CCCN2C(=O)[C@H](CCc2ccc(C(F)(F)F)c(Cl)c2)NC(=O)CN(C)C(=O)[C@H](Cc2ccc(C)cc2)N(CC2CCC2)C(=O)CN(C)C(=O)CN(C)C1=O [PP0095] ([NMeL]I[Sar][Sar][X43][Sar][hPhe(3-Cl-4-CF3)]P[Ac5c][NMeGly(cPent)][NMeD]-Morpholide; lactam N-11) | C (A compound having a KD ratio of 0.1 or more and less than 3 is denoted as C) | C (A compound having a KD ratio of 0.1 or more and less than 3 is denoted as C) | – | – | –
6 | CCC[C@H]1C(=O)N[C@@H]([C@@H](C)CC)C(=O)N(C)CC(=O)N(C)[C@H]2C/C=C\CCN(C2=O)[C@@H](Cc2ccc(C(F)(F)F)cc2)C(=O)N(C)CC(=O)N[C@@H](CCc2cc(F)c(C(F)(F)F)c(F)c2)C(=O)N2C[C@@H](C)C[C@H]2C(=O)NC2(CC(C)(C)C2)C(=O)N(C)[C@@H](C2CCCC2)C(=O)N(C)[C@H](C(=O)N(C)C)CC(=O)N1C [PP1683] | – | – | – | – | NRAS/KRAS (ratio of KD value for NRAS to KD value for KRAS) [1, 5]: A (a compound having 10 or more and less than 20 is denoted as A); HRAS/KRAS (ratio of KD value for HRAS to KD value for KRAS) [2, 6]: A (a compound having 10 or more and less than 20 is denoted as A)
7 | CCOC[C@H]1C(=O)N[C@@H]([C@@H](C)CC)C(=O)N(C)CC(=O)N(C)[C@H]2C/C=C\CCN(C2=O)[C@@H](Cc2ccc(C)cc2)C(=O)N(C)CC(=O)N[C@@H](CCc2cc(F)c(C(F)(F)F)c(F)c2)C(=O)N2C[C@H](OCC)C[C@H]2C(=O)NC2(CC(C)(C)C2)C(=O)N(C)[C@@H](C2CCCC2)C(=O)N(C)[C@H](C(=O)N(C)C)CC(=O)N1C [PP2397] | – | – | – | – | NRAS/KRAS (ratio of KD value with respect to NRAS to KD value with respect to KRAS) [1, 3]: A (a compound having 10 or more and less than 20 is denoted as A); HRAS/KRAS (ratio of KD value with respect to HRAS to KD value with respect to KRAS) [2, 4]: A (a compound having 10 or more and less than 20 is denoted as A)
8 | CC[C@H](C)[C@@H]1NC(=O)[C@H](CC(C)C)N(C)C(=O)C[C@@H](C(=O)N2CCOCC2)N(C)C(=O)[C@H](C2CCCC2)N(C)C(=O)C2(CCC2)NC(=O)[C@@H]2C[C@@H](OC)CN2C(=O)[C@H](CCc2cc(F)c(C(F)(F)F)c(F)c2)NC(=O)CN(C)C(=O)[C@H](Cc2ccc(C(F)(F)F)cc2)N2CCCC[C@@H](C2=O)N(C)C(=O)CN(C)C1=O [PP1003] | – | – | C (A compound having a KD ratio of 0.1 or more and less than 3 is denoted as C) | B (a compound having 3 or more and less than 10 is denoted as B) | –
9 | C=CCCN1C(=O)CN(C)C(=O)CN(C)C(=O)[C@H]([C@@H](C)CC)NC(=O)[C@H](CC(C)C)N(C)C(=O)C[C@@H](C(=O)N2CCOCC2)N(C)C(=O)[C@H](C2CCCC2)N(C)C(=O)C2(CCCC2)NC(=O)[C@@H]2CCCN2C(=O)[C@H](CCc2ccc(C(F)(F)F)c(Cl)c2)NC(=O)CN(C)C(=O)[C@@H]1Cc1ccc(C)cc1 [PP0101] ([NMeL]I[Sar][Sar][X48][Sar][hPhe(3-Cl-4-CF3)]P[Ac5c][NMeGly(cPent)][NMeD]-Morpholide; lactam N-11) | B (a compound having 3 or more and less than 10 is denoted as B) | C (A compound having a KD ratio of 0.1 or more and less than 3 is denoted as C) | – | – | –
10 | CCC[C@H]1C(=O)N[C@@H]([C@@H](C)CC)C(=O)N(C)CC(=O)N(C)[C@H]2C/C=C\CCN(C2=O)[C@@H](Cc2ccc(C(F)(F)F)cc2)C(=O)N(C)CC(=O)N[C@@H](CCc2ccc(C(F)(F)F)c(Cl)c2)C(=O)N2C[C@H](OCC)C[C@H]2C(=O)NC2(CC(C)(C)C2)C(=O)N(C)[C@@H]([C@@H](C)CC)C(=O)N(C)[C@H](C(=O)N(C)C)CC(=O)N1C [PP2973] | – | – | – | – | NRAS/KRAS (ratio of KD value with respect to GDP-bound NRAS wild-type protein to KD value with respect to KRAS) ([1]; KD ratio NRAS/KRAS, GDP-bound wild-type proteins): A (a compound having 10 or more and less than 20 is denoted as A); HRAS/KRAS (ratio of KD value with respect to GDP-bound HRAS wild-type protein to KD value with respect to KRAS) ([2]; KD ratio HRAS/KRAS, GDP-bound wild-type proteins): A (a compound having 10 or more and less than 20 is denoted as A)
